Measured values published in ChEMBL document CHEMBL1201862, “PubChem BioAssay data set” (2004).
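Test compounds were applied to cells in 96-well plates for 48 hours at 5 doses. GI50 is the concentration that inhibits growth by half.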 Active and inactive are the calls of the source. Cut-off read from the data, not from the text of the source: active = GI50 up to about 1.1 µM and inactive = higher.

Assays:
Assay in all cases: NCI anticancer screen, dose series, 48 h
[1] = tested on: A549
[2] = tested on: CAKI-1
[3] = tested on: HCC 2998
[4] = tested on: HCT-116
[5] = tested on: HCT-15
[6] = tested on: HOP-92
[7] = tested on: KM12
[8] = tested on: M19-MEL
[9] = tested on: NCI-H23
[10] = tested on: NCI-H460
[11] = tested on: SK-MEL-28
[12] = tested on: SK-MEL-2
[13] = tested on: U-251
[14] = tested on: RXF 393
[15] = tested on: BT-549
[16] = tested on: MDA-MB-435
[17] = tested on: MDA-N
[18] = tested on: NCI/ADR-RES
[19] = tested on: PC-3
[20] = tested on: T47D

Structure (SMILES) | GI50 [1] | GI50 [2] | GI50 [3] | GI50 [4] | GI50 [5] [µM] | GI50 [6] | GI50 [7] | GI50 [8] | GI50 [9] | GI50 [10] | GI50 [11] | GI50 [12] | GI50 [13] | GI50 [14] | GI50 [15] | GI50 [16] | GI50 [17] | GI50 [18] | GI50 [19] | GI50 [20]
COc1ccccc1NC(=O)c1nc2ccc([N+](=O)[O-])cc2nc1C | > 100 µM (inactive) | > 100 µM (inactive) | > 100 µM (inactive) | > 100 µM (inactive) | > 100 | 51.8 µM (inactive) | > 100 µM (inactive) | > 100 µM (inactive) | > 100 µM (inactive) | > 100 µM (inactive) | > 100 µM (inactive) | > 100 µM (inactive) | > 100 µM (inactive) |  |  |  |  |  |  | 
O=C1CNNC(Cn2nc(-c3ccccc3)c3ccccc3c2=O)=N1 | > 100 µM (inactive) |  | > 100 µM (inactive) | > 100 µM (inactive) | > 100 | > 100 µM (inactive) | > 100 µM (inactive) | > 100 µM (inactive) | > 100 µM (inactive) | > 100 µM (inactive) | > 100 µM (inactive) | > 100 µM (inactive) | > 100 µM (inactive) |  |  |  |  |  |  | 
CCOC(=O)C1Nc2ccccc2[C@H]2OCC[C@@H]12 (stereo partly specified) | > 100 µM (inactive) | > 100 µM (inactive) | > 100 µM (inactive) | > 100 µM (inactive) | > 100 |  | > 100 µM (inactive) | > 100 µM (inactive) | > 100 µM (inactive) | > 100 µM (inactive) | > 100 µM (inactive) | 0.0596 µM (active) | > 100 µM (inactive) | > 100 µM (inactive) |  |  |  |  |  | 
COc1ccc(NC(=O)CC(=O)N/N=C/c2ccc(N(CCC#N)S(=O)(=O)c3ccccc3)cc2)cc1 | > 100 µM (inactive) | > 100 µM (inactive) | > 100 µM (inactive) | > 100 µM (inactive) | > 100 | > 100 µM (inactive) | > 100 µM (inactive) | > 100 µM (inactive) | > 100 µM (inactive) | > 100 µM (inactive) | > 100 µM (inactive) | > 100 µM (inactive) | > 100 µM (inactive) |  |  |  |  |  |  | 
CCCN(CCC)C(=S)N/N=C/c1ccccn1 | < 0.0138 µM (active) | 0.0169 µM (active) | 0.398 µM (active) | < 0.01 µM (active) | < 0.01 | 0.169 µM (active) | < 0.0139 µM (active) |  | < 0.01 µM (active) | 0.0103 µM (active) | 0.17 µM (active) | < 0.0385 µM (active) | < 0.0138 µM (active) | 0.0566 µM (active) | 0.341 µM (active) | 0.17 µM (active) | 0.0989 µM (active) | < 0.01 µM (active) | < 0.01 µM (active) | < 0.01 µM (active)
O=C(CCc1cccc(O)c1)NCCc1cccc(OCc2ccccc2)c1 | 28.1 µM (inactive) | 26.9 µM (inactive) | 17.3 µM (inactive) | 16.7 µM (inactive) | 19.9 | 14.9 µM (inactive) | 6.81 µM (inactive) |  | 18.9 µM (inactive) | 15.6 µM (inactive) | 16.1 µM (inactive) | 15.6 µM (inactive) | 16.5 µM (inactive) | 19.7 µM (inactive) | 16.1 µM (inactive) | 14.9 µM (inactive) | 18.6 µM (inactive) | 18.3 µM (inactive) | 10.3 µM (inactive) | 18.8 µM (inactive)
CC(C)=CCC[C@@H](C)C1=C(O)C(=O)C(C)=C(Nc2ccccc2Cl)C1=O | 19 µM (inactive) | 16 µM (inactive) | 20.6 µM (inactive) | 15 µM (inactive) | 7.26 | 27.8 µM (inactive) | 10.8 µM (inactive) |  | 12.5 µM (inactive) | 14.1 µM (inactive) | 26.5 µM (inactive) | 15.5 µM (inactive) | 16.3 µM (inactive) | 22.3 µM (inactive) | 32.4 µM (inactive) | 23.9 µM (inactive) | 21.5 µM (inactive) | 1.82 µM (inactive) | 18.5 µM (inactive) | 12.6 µM (inactive)
CCOc1cnc(C(O)(c2ccccc2)c2ccccc2)o1 | > 100 µM (inactive) | > 100 µM (inactive) | > 100 µM (inactive) | > 100 µM (inactive) | 77.1 | 58.9 µM (inactive) | > 100 µM (inactive) |  | > 100 µM (inactive) | > 100 µM (inactive) | > 100 µM (inactive) | > 100 µM (inactive) | > 100 µM (inactive) | > 100 µM (inactive) | > 100 µM (inactive) | > 100 µM (inactive) | > 100 µM (inactive) | > 100 µM (inactive) | > 100 µM (inactive) | > 100 µM (inactive)
CCCCCCCCCCCCC(O)C1CCC(C(O)CCCCCCC(O)CCCCCCCC2=CC(C)OC2=O)O1 (stereo unspecified) | 4.23 µM (inactive) | 24.9 µM (inactive) | 30.9 µM (inactive) | 0.127 µM (active) | 31.3 | 25.8 µM (inactive) | 32.4 µM (inactive) |  | 0.0109 µM (active) | 12.9 µM (inactive) | 51.9 µM (inactive) | 24.6 µM (inactive) | 61.9 µM (inactive) | 22.9 µM (inactive) | 8.87 µM (inactive) | 2.67 µM (inactive) | 17.7 µM (inactive) | 1.84 µM (inactive) | 31 µM (inactive) | 2.8 µM (inactive)
